Laboratory results published in patent US20230381269A1, “METHODS OF TREATING EYE DISORDERS” (Apellis Pharmaceuticals, Inc., priority 2020, published 2023).

Columns and labels:
[1] = Repeated intravitreal injection toxicology/toxicokinetics over nine months in cynomolgus monkeys; format: in vivo
Description: Preclinical studies in monkeys were performed to assess the safety and pharmacology of pegcetacoplan when injected intravitreally. Intravitreally administered pegcetacoplan in cynomolgus monkeys is distributed into the blood stream then further distributed and/or slowly eliminated from the body.

[2] = Pharmacokinetic profile of a single intravitreal dose in monkeys; format: in vivo; conditions: single intravitreal dose 10 mg/eye in both eyes
patients with wet AMD = test: Phase 1b open label single ascending dose clinical trial, intravitreal injection; format: in vivo, human
Description: In some embodiments a dose for intravitreal injection of a compstatin analog (e.g., comprising two compstatin analog moieties and a PEG having a molecular weight of about 40 kD) is 5 mg-20 mg. In some embodiments the dose is 10 mg. In some embodiments the dose is 10 mg, 11 mg, 12 mg, 13 mg, 14 mg, 15 mg, 16 mg, 17 mg, 18 mg, 19 mg, or 20 mg. In certain particular embodiments the dose is 15 mg. In some embodiments, any of the afore-mentioned doses is administered by intravitreal injection in a volume of between 90 and 110 microliters, e.g., in a volume of 100 microliters. In some embodiments, any of the afore-mentioned doses is administered by intravitreal injection using a 27, 28, 29, or 30 gauge needle. […] In certain embodiments a combination of dose and needle gauge that allows administration by IVT injection in 10 seconds or less is selected. In certain embodiments a combination of dose and needle that allows administration of the dose by IVT injection in 5-6 seconds, or less, is used.
A Phase 1 open label, single ascending dose clinical trial of pegcetacoplan in patients with wet AMD and receiving anti-VEGF therapy (specifically, Lucentis®, Eylea® or Avastin®), was initiated to assess safety, tolerability and PK of pegcetacoplan. In this trial, patients receive a single dose of pegcetacoplan by intravitreal injection followed by 113 days of monitoring. […]

patients with GA [3] = test: Phase 2 randomized sham-controlled clinical trial in GA: change in GA lesion size; format: in vivo, human; conditions: 15 mg intravitreal monthly or every other month for 12 months vs sham
Description: A randomized, single-masked, sham-controlled clinical trial of pegcetacoplan in patients with GA was conducted. 246 patients aged ≥50 years were enrolled in the trial.
Patients were randomized in a 2:2:1:1 manner to receive 15 mg pegcetacoplan (APL-2) monthly, 15 mg pegcetacoplan every other month, sham injection monthly or sham injection every other month. Patients in the pegcetacoplan arms received a dose of 15 mg of pegcetacoplan, injected into the vitreous humor in a 0.1 cc volume, monthly or every other month for 12 months followed by six months of monitoring after the end of treatment. In the sham-injection cohorts, patients received a simulated injection. The safety, tolerability, PK, and evidence of activity of multiple intravitreal injections of pegcetacoplan in patients with GA in at least one eye were assessed. The primary efficacy endpoint was change in GA lesion size from baseline to month 12. […] The adverse event profile is depicted in FIG. 3. (See also Liao et al., Ophthalmology 127:186-195 (2020).)

patients with GA [4] = test: Post hoc OCT analysis of Phase 2 trial: progression outside GA lesions (large drusen to iRORA/cRORA, iRORA to cRORA); format: in vivo, human; conditions: for reduction in the risk of progression to cRORA compared with sham: 12 months
Description: Post hoc analysis was also conducted to assess disease progression outside of GA lesions. Participants in the study (n=246) were categorized into PM (n=86), EOM (n=79), and sham (n=81) categories. Eyes with missed injections and those that developed exudative AMD (whereupon pegcetacoplan treatment was discontinued) were excluded. […] Masked readers evaluated OCT scans outside a 500-micron perimeter from the GA border adhering to classification described in Sadda et al., Ophthalmology 125:537-548 (2018)). […] SD-OCT images obtained at baseline, Month 6, and Month 12 (using the Zeiss Cirrus or 156 Heidelberg Spectralis) using 7-line raster scans (30×5, 240 μm spacing, 7 sections, ART set to 25, 1536 A-scans) and volume scans (20×20; 49 sections, 120 μm spacing, ART set to 16, 512 A-scans) were graded following the CAM criteria independently by two masked readers at the Doheny Image Reading and Research Lab (DIRRL). A senior reader (and member of the CAM group) reviewed all questionable cases flagged by the readers and also adjudicated any discrepancies between graders in order to yield a single consensus result for each case.
Main outcome measures included assessments at baseline, Month 6 and Month 12 of: a) progression from large drusen (≥40 microns height) to incomplete/complete RPE and outer retina atrophy (iRORA and/or cRORA) and b) progression from iRORA to cRORA. Specifically, the endpoints for each treatment group were: proportion of study eyes with at least one iRORA at baseline that progressed to cRORA at 6 and 12 months, and proportion of individual baseline iRORA lesions that progressed to cRORA at 6 and 12 months.
Baseline characteristics were summarized using descriptive statistics. Continuous variables, such as GA lesion size, were summarized using the number of observations, mean, standard deviation, median, minimum, and maximum. Categorical variables, such as the presence of iRORA lesion(s) at baseline, were summarized using counts and percentages. The progression of iRORA to cRORA was summarized at Months 6 and 12 at both the study eye and lesion level. For the study-eye-level summaries, the subset of eyes with at least one iRORA lesion at baseline was included. If at least one iRORA lesion was present at baseline progressed to cRORA during follow-up, the eye was counted as having progressed. The proportion of study eyes with progression was compared between each pegcetacoplan group and the sham control group using a Pearson chi-square test. P values <0.05 were considered statistically significant. Risk ratios and their corresponding 95% confidence intervals were calculated as the proportion that progressed from iRORA to cRORA in the pegcetacoplan group divided by the proportion in the sham group. For the lesion-level summaries of progression, each iRORA lesion present at baseline was assessed separately for progression to a cRORA lesion; the proportion of lesions that progressed was compared between each pegcetacoplan group and the sham control group using descriptive statistics (counts and percentages).

Substance: Poly(oxy-1,2-ethanediyl), α-hydro-ω-hydroxy-, 15,15′-diester with N-acetyl-L-isoleucyl-L-cysteinyl-L-valyl-1-methyl-L-tryptophyl-L-glutaminyl-L-α-aspartyl-L-tryptophylglycyl-L-alanyl-L-histidyl-L-arginyl-L-cysteinyl-L-threonyl-2-[2-(2-aminoethoxy)ethoxy]acetyl-N^6-carboxy-L-lysinamide cyclic (2->12)-(disulfide) [pegcetacoplan]
- intraocular or serum accumulation over multiple injections ([1]; doses up to 24.8 mg/eye in 5% dextrose, 50 or 100 μL/eye): little intraocular or serum accumulation
- full toxicological review (ophthalmological assessment, SD-OCT, electroretinography, tonometry, histopathology) ([1]; repeated intravitreal injections over nine months, doses up to 24.8 mg/eye): no evidence of pegcetacoplan-mediated changes
- vitreal half-life [2]: approximately 3.2 days
- apparent half-life of serum concentrations ([2]; serum): 10.4 days
- post-dose day until which serum concentrations increased ([2]; serum): 7 days
- serious adverse events (patients with wet AMD; initial nine patients, single intravitreal dose 5, 10 or 20 mg): no serious adverse events were reported
- tolerability (patients with wet AMD; single intravitreal dose 5 mg, 10 mg, 20 mg in 100 microliters): well tolerated
- rate of GA lesion growth (change in GA lesion size from baseline to month 12) (patients with GA [3]): reduced rate of lesion growth
- reduction in the risk of progression to cRORA compared with sham (patients with GA [4]; every other month, lesion level): 40%
- reduction in the risk of progression to cRORA compared with sham (patients with GA [4]; every other month, study-eye level): 30%
- reduction in the risk of progression to cRORA compared with sham (patients with GA [4]; monthly, lesion level): 41%
- reduction in the risk of progression to cRORA compared with sham (patients with GA [4]; monthly, study-eye level): 39%
- Relative risk of progression from iRORA to cRORA vs sham (95% CI) (patients with GA [4]; Month 6, PEOM, lesion level data): 0.51 (0.30-0.87)
- Relative risk of progression from iRORA to cRORA vs sham (95% CI) (patients with GA [4]; Month 6, PEOM, study-eye level): 0.76 (0.45-1.29)
- Relative risk of progression from iRORA to cRORA vs sham (95% CI) (patients with GA [4]; Month 6, PM, lesion level data): 0.53 (0.24-1.14)
- Relative risk of progression from iRORA to cRORA vs sham (95% CI) (patients with GA [4]; Month 6, PM, study-eye level): 0.52 (0.23-1.18)
- progression from large drusen to iRORA/cRORA (patients with GA [4]; Month 12, 15 mg monthly (PM)): 22.6%
- Relative risk of progression from iRORA to cRORA vs sham (95% CI) (patients with GA [4]; Month 12, PEOM, lesion level data): 0.60 (0.43-0.82)
- Relative risk of progression from iRORA to cRORA vs sham (95% CI) (patients with GA [4]; Month 12, PEOM, study-eye level): 0.70 (0.50-0.98)
- Relative risk of progression from iRORA to cRORA vs sham (95% CI) (patients with GA [4]; Month 12, PM, lesion level data): 0.59 (0.36-0.97)
- Relative risk of progression from iRORA to cRORA vs sham (95% CI) (patients with GA [4]; Month 12, PM, study-eye level): 0.61 (0.37-1.00)
- progression events from large drusen to iRORA/cRORA vs sham (in words) (patients with GA [4]; Month 12, monthly): relatively fewer progression events
- rate of progression from nascent GA to GA compared to sham controls (in words) (patients with GA [4]; intravitreal injections monthly or every other month): lower rate of progression from nascent GA to GA
- rate of progression of iRORA lesions to cRORA (patients with GA [4]; month 6, every other month (PEOM), lesion level): 20.0%
- progression from iRORA to cRORA, proportion of study eyes (patients with GA [4]; month 6, every other month (PEOM), study-eye level): 40.6%
- rate of progression of iRORA lesions to cRORA (patients with GA [4]; month 6, monthly (PM), lesion level): 20.7%
- progression from iRORA to cRORA, proportion of study eyes (patients with GA [4]; month 6, monthly (PM), study-eye level): 27.8%
- rate of progression of iRORA lesions to cRORA (patients with GA [4]; month 12, every other month (EOM), lesion level): 38.4%
- progression from iRORA to cRORA, proportion of study eyes (patients with GA [4]; month 12, every other month (PEOM), study-eye level): 57.6%
- rate of progression of iRORA lesions to cRORA (patients with GA [4]; month 12, monthly (PM), lesion level): 37.9%
- progression from iRORA to cRORA, proportion of study eyes (patients with GA [4]; month 12, monthly (PM), study-eye level): 50.0%
- rate of progression from iRORA to cRORA compared to sham group (in words) (patients with GA [4]; monthly or every other month): lower rate of progression from iRORA to cRORA
